Results as given in PubChem BioAssay (NCI).
Several values for one entry are separate records, joined by “and”; a condition that tells them apart may be missing. Equal values may be shown once.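 Each compound was tested at five concentrations against cells in 96-well plates for 48 hours. Abbreviation: GI50, concentration required for 50% inhibition of growth. TGI marks complete inhibition of growth.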

Key:
Assay in all cases: NCI anticancer screen, dose series, 48 h
[1] = tested on: SK-OV-3 ovarian
[2] = tested on: OVCAR-5 ovarian
[3] = tested on: K-562 leukemia
[4] = tested on: SR leukemia
[5] = tested on: HT29 colon
[6] = tested on: SF-539 CNS
[7] = tested on: NCI-H460 lung
[8] = tested on: SF-295 CNS
[9] = tested on: UO-31 renal
[10] = tested on: HCT-116 colon

Row | SMILES | TGI [1] | TGI [2] | TGI [3] | TGI [4] | TGI [5] | TGI [6] | TGI [7] | TGI [8] | TGI [9] | TGI [10] | GI50 [3] | GI50 [4] | GI50 [5] | GI50 [6] | GI50 [8] | GI50 [9] | GI50 [10]
1 | CCOC(=O)Cn1c(=O)c2cc(C)cc3c(Cl)nc4c(OC)c(OC)cc1c4c32 | > 100 µM | > 100 µM | > 100 µM | > 100 µM | > 100 µM | > 100 µM | > 100 µM | > 100 µM | > 100 µM | > 100 µM | – | – | – | – | – | – | –
2 | CCCCOP(=O)(OCCCC)C(NS(=O)(=O)c1ccccc1)(C(=O)OCC)C(F)(F)F (stereo not given) | > 100 µM | > 100 µM | 59.9 µM | > 100 µM | > 100 µM | 38.3 µM | > 100 µM | > 100 µM | > 100 µM | 66.9 µM | – | – | – | – | – | – | –
3 | Cc1cc([C@H](C#N)c2nc3ccccc3s2)nc(Cl)n1 | 56.5 µM | > 100 µM | > 100 µM | > 100 µM | 21.4 µM | 64 µM | 15.3 µM | > 100 µM | 21.3 µM | 15.3 µM | – | – | – | – | – | – | –
4 | c1ccc2c3c(c(N4CCNCC4)nc2c1)CCCC3 | 42.7 µM | 26.9 µM | > 100 µM | > 100 µM | 28.3 µM | 23.2 µM | 29.4 µM | 45.8 µM | 16.3 µM | 27.5 µM | – | – | – | – | – | – | –
5 | O=C(O)C(C1NCCS1)N1Cc2ccccc2C1 (stereo not given) | > 100 µM | > 100 µM | > 100 µM | > 100 µM | > 100 µM | > 100 µM | > 100 µM | > 100 µM | > 100 µM | > 100 µM | – | – | – | – | – | – | –
6 | COC(=O)/C=C1\C(=O)N(C(C)=O)c2ccccc21 | 29.7 µM | 59.1 µM | > 96.5 µM | > 27.5 µM | 20.6 µM | > 46.4 µM | 27.1 µM | > 55.2 µM | 26.4 µM | 31.2 µM | – | – | – | – | – | – | –
7 | CCCc1c(OC)c(O)c2c(=O)cc(OC)c3c4c(OC)cc(=O)c5c(O)c(OC)c(CCC)c(c1c23)c54 | 76.5 µM | 51.1 µM | > 100 µM | > 100 µM | 17.9 µM | 34.7 µM | 18.1 µM | 31.6 µM | 11 µM | 13.2 µM | – | – | – | – | – | – | –
8 | CN(C)c1ccc(C(=C2C=CC(=[N+](C)C)C=C2)c2c(O)c(S(=O)(=O)[O-])cc3cc(S(=O)(=O)O)ccc23)cc1 | > 100 µM | > 100 µM | > 100 µM | > 100 µM | > 100 µM | > 100 µM | > 100 µM | > 100 µM | > 100 µM | > 100 µM | – | – | – | – | – | – | –
9 | Cc1cc(C)c2c(=O)n(CC(O)CN3CCN(c4ncccn4)CC3)sc2n1 (stereo not given) | 32.8 µM | 31.1 µM | > 100 µM | 36.5 µM | 29.6 µM | 31.6 µM | 31.2 µM | > 100 µM | 30 µM | 29 µM | – | – | – | – | – | – | –
10 | CC(C)=CCC[C@@H](C)c1c(O)c(O)c(C)c2nc3ccccc3nc12 | 21.7 µM | 17.6 µM | > 32.5 µM | > 100 µM | 17.5 µM | 6.71 µM | 32.4 µM | 4.93 µM | 5.61 µM | 12.2 µM | – | – | – | – | – | – | –
11 | C/C(=N\NC(=S)N/N=C(\C)c1ccccn1)c1ccccn1 | > 100 µM | > 100 µM | 7.92 µM | > 100 µM | > 100 µM | 8.83 µM | 6.46 µM | > 100 µM | 5.31 µM | > 100 µM | – | – | – | – | – | – | –
12 | COC(=O)c1ccc2c(c1)CCN2C(=O)c1cc2c(cc1Br)OCO2 | > 100 µM | > 50 µM | 50 µM and > 100 µM | 50 µM and > 100 µM | 50 µM and 12.1 µM | – | 50 µM | 50 µM and > 100 µM | 24.8 µM and 72.1 µM | – | 0.824 µM | 0.366 µM | 0.507 µM | 2.93 µM | 0.683 µM | 0.817 µM | 0.677 µM
13 | CCOC(=O)C(C(N)=O)c1nc2cc([N+](=O)[O-])ccc2nc1/C=C(\O)c1ccc(C)cc1 (stereo not given) | 39.4 µM | > 100 µM | 12.1 µM | 25.9 µM | > 100 µM | 36.5 µM | 58.1 µM | 43.6 µM | 49 µM | 55.4 µM | – | – | – | – | – | – | –
14 | NCCCCN(CCCN)C(=O)OCc1ccccc1 | > 100 µM | > 100 µM | > 100 µM | > 100 µM | > 100 µM | > 100 µM | > 100 µM | > 100 µM | > 100 µM | > 100 µM | – | – | – | – | – | – | –
15 | CC(CCC(=O)O)(c1cc(Br)c(O)c(Br)c1)c1cc(Br)c(O)c(Br)c1 | > 100 µM | > 100 µM | > 100 µM | > 100 µM | > 100 µM | > 100 µM | > 100 µM | > 100 µM | > 100 µM | > 100 µM | – | – | – | – | – | – | –
16 | Brc1ccc2c(c1)[C@H]1CCc3c([nH]c4ccccc34)[C@H]1N2 | 27.5 µM | 27 µM | 39.8 µM | 33.1 µM | 27.1 µM | 16.4 µM | 24.8 µM | 24.5 µM | 26.9 µM | 21 µM | – | – | – | – | – | – | –
17 | NC1=CN2c3ccccc3N(CC(=O)N3CCOCC3)C2C=C1 (stereo not given) | > 100 µM | > 100 µM | > 100 µM | > 100 µM | > 100 µM | > 100 µM | > 100 µM | > 100 µM | > 100 µM | > 100 µM | – | – | – | – | – | – | –
18 | O=C1CCCc2ccc3c(c21)CC1(Cc2cc4c(cc2C1)CCCC4)C3 | > 100 µM | 72.3 µM | 25.1 µM | 31.5 µM | 50.9 µM | 48.7 µM | 74.5 µM | 75.7 µM | 32.4 µM | 34.6 µM | – | – | – | – | – | – | –
19 | CCNc1nc2ccccc2nc1NCC | > 100 µM | > 100 µM | > 100 µM | > 100 µM | > 100 µM | > 100 µM | > 100 µM | > 100 µM | > 100 µM | > 100 µM | – | – | – | – | – | – | –
20 | CO/C=C(/C(=O)OC)c1ccccc1[C@H]1C[C@@H]1c1ccc(OC)cc1 | 60.7 µM | > 100 µM | > 100 µM | 45.4 µM | 38.7 µM | 38 µM | 83 µM | 46.3 µM | > 100 µM | 44.5 µM | – | – | – | – | – | – | –
21 | Nc1c2c(nc3ccccc13)-c1ccccc1CCC2 | 31 µM | 30 µM | 33.8 µM | 11 µM | 25.9 µM | 26.2 µM | 18 µM | 19.1 µM | 22.3 µM | 20.2 µM | – | – | – | – | – | – | –
22 | c1ccc2c(c1)N=c1ccccc1=P21c2ccccc2Nc2ccccc21 | 5.82 µM | 3.81 µM | > 100 µM | 1.75 µM | 10.1 µM | 9.24 µM | 10.7 µM | 7.64 µM | 27 µM | 1.76 µM | – | – | – | – | – | – | –
